Measurements as given in the supplement of paper PMC5908809.

Tests used:
[1] = test system: normal NK cells expanded with K562-aAPC; test: percent inhibition of viability; higher = more inhibition; details: 72 h, IL-2 2.5 ng/mL
Method: (§1)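 Drug sensitivity and resistance testing on K562-aAPC-expanded normal NK cells: 5 concentrations (10-fold steps over a 10,000-fold range), 72 h at 37 °C, viability by CellTiter-Glo normalised to DMSO and benzethonium chloride controls; DSS from the fitted curve.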

[2] = test system: normal primary NK cells, pool 1 (3 donors) (IL-2 2.5 ng/mL); test: drug sensitivity score (DSS) (DSS units); higher = more sensitive; extreme values may be limits of the assay; details: 72 h
DERL-7 (IL-2 2.5 ng/mL) [3] = test: as above; details: 72 h
SNK-6 (IL-2 2.5 ng/mL) [4] = test: as above; details: 72 h
[5] = test system: normal primary NK cells, pool 2 (3 donors) (IL-2 2.5 ng/mL); test: as above; details: 72 h
NK-YS (IL-2 2.5 ng/mL) [6] = test: as above; details: 72 h
NK-92 (IL-2 2.5 ng/mL) [7] = test: as above; details: 72 h
KAI3 (IL-2 2.5 ng/mL) [8] = test: as above; details: 72 h
KHYG-1 (IL-2 2.5 ng/mL) [9] = test: as above; details: 72 h
IMC-1 (IL-2 20 ng/mL) [10] = test: as above; details: 72 h
NKL (IL-2 2.5 ng/mL) [11] = test: as above; details: 72 h
YT (IL-2 2.5 ng/mL) [12] = test: as above; details: 72 h
[13] = test system: normal primary NK cells, pool 1 (3 donors), resting (IL-2 0 ng/mL); test: as above; details: 72 h
[14] = test system: normal primary NK cells, pool 3 (3 donors) (IL-2 2.5 ng/mL); test: as above; details: 72 h
[15] = test system: normal primary NK cells, pool 1 (3 donors) (IL-2 2.5 ng/mL); test: percent inhibition of viability; higher = more inhibition; details: 72 h
DERL-7 (IL-2 2.5 ng/mL) [16] = test: as above; details: 72 h
SNK-6 (IL-2 2.5 ng/mL) [17] = test: as above; details: 72 h
[18] = test system: normal primary NK cells, pool 2 (3 donors) (IL-2 2.5 ng/mL); test: as above; details: 72 h
NK-YS (IL-2 2.5 ng/mL) [19] = test: as above; details: 72 h
NK-92 (IL-2 2.5 ng/mL) [20] = test: as above; details: 72 h
KAI3 (IL-2 2.5 ng/mL) [21] = test: as above; details: 72 h
KHYG-1 (IL-2 2.5 ng/mL) [22] = test: as above; details: 72 h
IMC-1 (IL-2 20 ng/mL) [23] = test: as above; details: 72 h
NKL (IL-2 2.5 ng/mL) [24] = test: as above; details: 72 h
YT (IL-2 2.5 ng/mL) [25] = test: as above; details: 72 h
[26] = test system: normal primary NK cells, pool 1 (3 donors), resting (IL-2 0 ng/mL); test: as above; details: 72 h
[27] = test system: normal primary NK cells, pool 3 (3 donors) (IL-2 2.5 ng/mL); test: as above; details: 72 h
[28] = test system: normal NK cells expanded with K562-aAPC; test: drug sensitivity score (DSS) (DSS units); higher = more sensitive; extreme values may be limits of the assay; details: 72 h; IL-2 2.5 ng/mL
Method: as §1

Oc1nc(-c2ccc(C(F)(F)F)cc2)nc2c1CSCC2 [XAV-939] (max concentration tested 10000 nM)
percent inhibition of viability [%]
Details | 1 nM | 10 nM | 100 nM | 1000 nM | 10000 nM
DERL-7 (IL-2 2.5 ng/mL) [16] | -0.97 | 2.31 | -5.81 | -0.61 | -5.6
IMC-1 (IL-2 20 ng/mL) [23] | -0.75 | 0.78 | 6.56 | 9.99 | 39.2
KAI3 (IL-2 2.5 ng/mL) [21] | -2.16 | 1.91 | 4.79 | 4.07 | 5.97
KHYG-1 (IL-2 2.5 ng/mL) [22] | -8.26 | -1.11 | 3.24 | 1.73 | 10.4
NK-92 (IL-2 2.5 ng/mL) [20] | -10.9 | 2.21 | 17.2 | 22 | 31.4
NK-YS (IL-2 2.5 ng/mL) [19] | -12.6 | -2.95 | -1.3 | -3.02 | 5.39
NKL (IL-2 2.5 ng/mL) [24] | 1.91 | -6.23 | 10.7 | 20.1 | 4.9
SNK-6 (IL-2 2.5 ng/mL) [17] | -1.06 | -8.2 | 12.5 | 35.6 | 76
YT (IL-2 2.5 ng/mL) [25] | 4.14 | 5.64 | 7.84 | -1.3 | 6.37
[1] | 1.61 | 2.89 | 1.43 | 14.1 | 19.3
[15] | 7.73 | 0.81 | -0.78 | 0.58 | 4.2
[18] | -8.38 | -12 | -5.14 | 5.25 | 5.51
[26] | -4.7 | -1.64 | -3.21 | -28.2 | -2.43
[27] | -11 | -5.69 | -2.72 | 0.89 | 10.2

Details | drug sensitivity score
DERL-7 (IL-2 2.5 ng/mL) [3] | 0
IMC-1 (IL-2 20 ng/mL) [10] | 3.24
KAI3 (IL-2 2.5 ng/mL) [8] | 0
KHYG-1 (IL-2 2.5 ng/mL) [9] | 0.01
NK-92 (IL-2 2.5 ng/mL) [7] | 5.52
NK-YS (IL-2 2.5 ng/mL) [6] | 0
NKL (IL-2 2.5 ng/mL) [11] | 0.48
SNK-6 (IL-2 2.5 ng/mL) [4] | 8.49
YT (IL-2 2.5 ng/mL) [12] | 0
[2] | 0
[5] | 0
[13] | 0
[14] | 0
[28] | 1.76

CN[C@@H](C)C(=O)N[C@H]1CN(C(=O)CC(C)C)CC[C@H]2CC[C@@H](C(=O)NC(c3ccccc3)c3ccccc3)N2C1=O [AT-406] (max concentration tested 10000 nM)
percent inhibition of viability [%]
Details | 1 nM | 10 nM | 100 nM | 1000 nM | 10000 nM
DERL-7 (IL-2 2.5 ng/mL) [16] | -6.8 | 8.09 | 10.6 | 21.5 | 39.4
IMC-1 (IL-2 20 ng/mL) [23] | -6.88 | -6.17 | 4.87 | 17.4 | 12.2
KAI3 (IL-2 2.5 ng/mL) [21] | 0.46 | -9.34 | -3.88 | 10.2 | 62.7
KHYG-1 (IL-2 2.5 ng/mL) [22] | -3.13 | -12.2 | -7.84 | 25.9 | 91.8
NK-92 (IL-2 2.5 ng/mL) [20] | -23.7 | -16.2 | 3.03 | 13.5 | 49.2
NK-YS (IL-2 2.5 ng/mL) [19] | -5.59 | -11.9 | -8.91 | -3.43 | 6.14
NKL (IL-2 2.5 ng/mL) [24] | 2.76 | 0.59 | 0.42 | 22.9 | 30.9
SNK-6 (IL-2 2.5 ng/mL) [17] | -9.2 | -11.9 | -1.09 | 4.11 | 11.8
YT (IL-2 2.5 ng/mL) [25] | 0.43 | -2.82 | -3.18 | 14.6 | 35.9
[1] | -3.38 | -2.67 | 4.16 | 25.7 | 52.9
[15] | -7.15 | 1.28 | 15.2 | 27.8 | 74
[18] | -16.6 | -8.69 | 4.59 | 20.9 | 64.6
[26] | -17.3 | -12.3 | 13.9 | 28.4 | 73.2
[27] | -11.2 | -10.2 | 2.26 | 13 | 61.8

Details | drug sensitivity score
DERL-7 (IL-2 2.5 ng/mL) [3] | 4.83
IMC-1 (IL-2 20 ng/mL) [10] | 2.57
KAI3 (IL-2 2.5 ng/mL) [8] | 5.12
KHYG-1 (IL-2 2.5 ng/mL) [9] | 8.94
NK-92 (IL-2 2.5 ng/mL) [7] | 4.65
NK-YS (IL-2 2.5 ng/mL) [6] | 0
NKL (IL-2 2.5 ng/mL) [11] | 3.99
SNK-6 (IL-2 2.5 ng/mL) [4] | 0.19
YT (IL-2 2.5 ng/mL) [12] | 3.66
[2] | 7.33
[5] | 6.28
[13] | 7.24
[14] | 5.48
[28] | 5.72
